Laboratory results: PubChem BioAssay AID2423 (Broad Institute, 2010)
Where “and” joins values, the source holds several entries; their conditions need not be identical. Equal values may be shown once. Results filed as inconclusive are left out. Calls of active or inactive are those of the source. The rule behind the calls is not given here.

Each molecule was assayed on C. albicans CaCi-8 + fluconazole, Alamar Blue growth, 48 h (assay: resistant C. albicans growth inhibition with fluconazole, dose response, CaCi-8 strain, Alamar Blue fluorescence (AID 2423)).
Work on Oc1ccc(O)c2c1C1c3ccccc3C2c2ccccc21 yielded an EC50 of 2050 nM.
Molecule Cc1cc(C)n(-c2nc(SCCN(C)C)c3c4c(sc3n2)CCCC4)n1 has an EC50 of 6430 nM.
O=C(NC(=S)NNC(=O)c1cc2ccccc2cc1O)c1ccco1 gave an EC50 of 1030 nM.
With C=CCNC(=S)Nc1sc2c(c1C(=O)OCC)CC(C)(CC)OC2 (configuration not stated) the EC50 was 1380 nM.
CCCC(=O)NC(c1ccc(Cl)cc1)c1ccc2cccnc2c1O (configuration not stated) was tested, and the EC50 was 543 nM.
For Oc1nc(Nc2ccccc2)sc1/C=C1\C=Nc2ccccc21, the EC50 was 1630 nM.
COc1ccc(CCC(=O)N2CC(C)OC(C)C2)cc1 (configuration not stated) was tested, and the EC50 was > 15000 nM (inactive).
In the case of CC(OC(=O)c1oc2ccccc2c1COc1ccccc1)C(N)=O (configuration not stated), the EC50 is reported as > 16000 nM (inactive).
Cc1nc(C)c(C(=O)N/N=C/c2cc(Br)ccc2O)s1 showed an EC50 of 2120 nM.
With Cc1c2ccccc2nc2c(F)c(NCCO)c(F)c(F)c12 the EC50 was > 16000 nM (inactive).
Molecule CN(C)c1cc[n+](CC(=O)c2ccc(-c3ccccc3)cc2)cc1 has an EC50 of 4980 nM.
For CN(C)CCCNC(=O)c1ccc(-c2nc(-c3ccc(Cl)cc3)cs2)cc1, the EC50 was 2610 nM.
C/C(=N\NC(=O)CCC(=O)Nc1ccc(C)c(C)c1)C1CC1 was tested, and the EC50 was > 15000 nM (inactive).
Work on CS(=O)(=O)NN1C(=O)c2ccccc2NC1c1cccc2cccnc12 (configuration not stated) yielded an EC50 of 2130 nM.
Oc1[nH]c2c(Cl)cc(Cl)cc2c1N=NC(=S)NCC1CCCO1 (configuration not stated) showed an EC50 of 3580 nM.
Cc1noc(NC(=O)c2ccc(Cl)c(Cl)c2)c1Cl was tested, and the EC50 was > 15000 nM (inactive).
For Cc1cc(Cl)ccc1OCc1cn2cccnc2n1, the EC50 was 5340 nM.
For O=[N+]([O-])c1ccc(O)c(/C=N/Nc2ccc(Cl)nn2)c1, the EC50 was 1800 nM.
COc1ccc(C)cc1Nc1n[n+](-c2ccccc2)c(-c2ccc(N(C)C)cc2)s1 was tested, and the EC50 was 3710 nM.
CCOc1ccc(NC(=S)NNC(=O)c2ccc(Br)cc2)cc1 showed an EC50 of 1560 nM.
Nc1cc(N)nc(SCc2cccc(F)c2)n1 was tested, and the EC50 was > 15000 nM (inactive).
Cn1c(N2CCOCC2)c(/C=N/OC(=O)c2ccc(F)cc2)c2ccccc21 gave an EC50 of 630 nM.
In the case of COc1ccc(-c2nnc(NC(=O)c3cc(Cl)ccc3Cl)o2)cc1, the EC50 is reported as 1120 nM.
With CC(C)CCNCC(=O)NC(c1ccccc1)c1ccccc1 the EC50 was > 16000 nM (inactive).
O=C(O)CSc1nc(-c2ccc(Cl)cc2)nc2c1oc1ccccc12 showed an EC50 of 1510 nM.
In the case of Cc1ccc(C2(c3noc(CN4CCC(c5ccncc5)CC4)n3)CCCC2)cc1, the EC50 is reported as > 15000 nM (inactive).
For COc1cnc(-c2ccccn2)nc1Sc1ccccc1Cl, the EC50 was > 15000 nM (inactive).
With Cc1cccc(NC(=O)CSC(N)=O)c1C the EC50 was > 15000 nM (inactive).
For C=CCc1c(C)c(C#N)c2nc3ccccc3n2c1NCCN(C)C, the EC50 was 896 nM.
With Clc1ccc2c(c1)C(c1cccs1)=NNC(c1cccnc1)=N2 the EC50 was < 120 nM.
Molecule COc1ccc(C(=O)Nc2ccccc2C(=O)Nc2ccccc2C(=O)O)cc1 has an EC50 of 7540 nM.
Work on O=C(COc1ccc([N+](=O)[O-])cc1)NNC(=S)NC(=O)c1ccc(Br)cc1 yielded an EC50 of 2540 nM.
Nc1nonc1-n1nnc(C(=O)N/N=C/c2cc(Br)ccc2O)c1CSC1=NCCS1 showed an EC50 of 359 nM.
With CCc1ccccc1NC(=S)N=Nc1c(O)n(C)c2ccc(S(=O)(=O)N3CCOCC3)cc12 the EC50 was 5160 nM.
For Cc1cccc(Cc2nnc(CCC(=O)N3CCCCC3c3nccs3)o2)c1 (configuration not stated), the EC50 was > 16000 nM (inactive).
In the case of O=C(Nc1ccc(NC(=O)c2cccs2)cc1)c1ccc(Br)o1, the EC50 is reported as 9960 nM.
Work on O=c1c2cc(Br)ccc2nc(-c2ccc([N+](=O)[O-])cc2)n1O yielded an EC50 of 1140 nM.
With CCOC(=O)c1ccccc1NC(=O)c1cccc([N+](=O)[O-])c1 the EC50 was > 15000 nM (inactive).
Nc1c(S(=O)(=O)c2ccccc2)c2nc3ccccc3nc2n1CCN1CCOCC1 showed an EC50 of 2970 nM.
Molecule Cc1ccc(-n2c(Cc3ccccc3)n[nH]c2=S)c(C)c1 has an EC50 of 803 nM.
O=C1CCCN1CCCN=c1c([N+](=O)[O-])nn(-c2ccc(Cl)cc2)n1O gave an EC50 of 6120 nM.
For COc1ccc(OC)c(NC(=O)c2c3c(nc4ccccc24)CCC3)c1, the EC50 was 6600 nM.
O=c1c2cc(Br)ccc2nc(-c2cccc(C(F)(F)F)c2)n1O showed an EC50 of 1040 nM.
With Cc1ccc(NC(=O)NC2CCCCCCC2)c(C)c1 the EC50 was > 16000 nM (inactive).
For O=C(Oc1cc2oc(=O)cc(-c3ccccc3)c2cc1Cl)C1CCCCC1, the EC50 was 1200 nM.
O=C(NC1CCCCC1)c1cc([N+](=O)[O-])[nH]n1 showed an EC50 of 1120 nM.
Cc1ccc(C(=O)NC(=S)NNC(=O)c2ccccc2[N+](=O)[O-])cc1 was tested, and the EC50 was > 15000 nM (inactive).
With Cc1cccc(C2CC3(CC(C)(C)NC(=S)N3)Oc3cc(O)ccc32)c1 (configuration not stated) the EC50 was 3970 nM.
Molecule COc1cccc(C(NC(C)=O)c2ccc3cccnc3c2O)c1 (configuration not stated) has an EC50 of 1730 nM.
Work on Oc1c(C(c2ccccc2Cl)N2CCCC2)ccc2cccnc12 (configuration not stated) yielded an EC50 of 1250 nM.
For CCC(C)OC(=O)C[N+](C)(C)CCOC1CC2CCC1(C)C2(C)C (configuration not stated), the EC50 was 6590 nM.
In the case of CCCCC(=O)NC(c1ccc(N(C)C)cc1)c1ccc2cccnc2c1O (configuration not stated), the EC50 is reported as 707 nM.
Work on Cc1cc2oc3ccc(NCCCn4ccnc4)cc3c(=O)c2cc1C yielded an EC50 of 1990 nM.
Work on CC(C)CCOC(=O)C[N+](C)(C)CCOC1CC2CCC1(C)C2(C)C (configuration not stated) yielded an EC50 of 3050 nM.
For Cc1cccc(-n2c(SCc3cc(=O)n4ccsc4n3)nc3ccccc32)c1, the EC50 was > 15000 nM (inactive).
CCNc1nc(NC(C)C)nc(NC(C)(C)C)n1 was tested, and the EC50 was 1400 nM.
With COc1cccc(N=Nc2ccc3cccnc3c2O)c1 the EC50 was 430 nM.
Molecule O=C(CCS(=O)(=O)c1ccc(Cl)cc1)Nc1nc(-c2ccncc2)cs1 has an EC50 of 709 nM.
COc1cccc(/C=N/NC(=O)c2cc(-c3cccn3C)n[nH]2)c1O was tested, and the EC50 was 5640 nM.
Molecule O=C1c2ccccc2NC(c2ccc(-c3ccc(Br)cc3)o2)N1O (configuration not stated) has an EC50 of 2120 nM.
O=C(COc1ccc(F)cc1)Nc1nc(-c2ccccn2)cs1 was tested, and the EC50 was 2230 nM.
For COc1ccccc1N1CCN(C(=O)c2cc3cc(Cl)ccc3[nH]2)CC1, the EC50 was > 15000 nM (inactive).
Cc1cccc(-n2nc(C(=O)c3ccco3)cc(-c3nc4ccccc4[nH]3)c2=N)c1 gave an EC50 of 6090 nM.
For Cc1cc(NC(=O)c2cccc(Oc3ccccc3)c2)n[nH]1, the EC50 was 1570 nM.
In the case of N#Cc1c(Cl)nsc1NC(=O)c1ccccc1, the EC50 is reported as > 16000 nM (inactive).
Molecule Cc1nn(-c2ccccc2)c(N)c1N=Nc1ccc(Cl)cc1 has an EC50 of 7760 nM.
With NC(=S)NNc1cccc(Cl)c1 the EC50 was > 16000 nM (inactive).
Cc1cccc(NCc2ccc(O)c3ncccc23)c1C was tested, and the EC50 was 11800 nM.
Molecule CCCOc1ccc(C(=O)NNC(=S)NC(C)=O)cc1 has an EC50 of 1670 nM.
Cc1ccc(N=Cc2cc(Cc3ccccc3Cl)cc([N+](=O)[O-])c2O)c(O)c1 was tested, and the EC50 was > 15000 nM (inactive).
Molecule O=C(N/N=C/c1c(O)ccc2ccccc12)c1cccc(C(F)(F)F)c1 has an EC50 of 242 nM.
CCC(=O)NC(c1ccccc1OC)c1ccc2cccnc2c1O (configuration not stated) gave an EC50 of 999 nM.
In the case of CN1CCc2cc3c(c4c2[C@H]1[C@H](O)c1ccccc1-4)OCO3, the EC50 is reported as 8200 nM.
With Cc1cc(Sc2nc(N)ncc2[N+](=O)[O-])ncn1 the EC50 was 2150 nM.
With CN(C)c1cc(N/N=C/c2ccc(Cl)cc2)nc(N(C)C)n1 the EC50 was 695 nM.
Work on Oc1ccc(N=Nc2ccccc2C(F)(F)F)c2cccnc12 yielded an EC50 of 1080 nM.
For CC(C)N1CCc2c(sc(NC(=O)c3nc4ccccc4s3)c2C(N)=O)C1, the EC50 was 239 nM.
Cc1noc(/C=C/c2ccccn2)c1[N+](=O)[O-] gave an EC50 of 1900 nM.
For Cc1onc(-c2ccccc2Cl)c1C(=O)Nc1sc2c(c1C#N)CCC2, the EC50 was < 120 nM.
CS/C(=N\S(=O)(=O)c1cccs1)Nc1ccc(F)c(Cl)c1 showed an EC50 of 1890 nM.
Molecule O=C(N/N=C/c1sc(N2CCCCC2)nc1-c1cccs1)c1cccnc1 has an EC50 of 1470 nM.
CCOC(=O)Cc1csc(NC(=O)CSc2nnc(-c3ccncc3)o2)n1 was tested, and the EC50 was < 120 nM.
In the case of O=C1C2CCN(CC2)C1Cc1ccc(OCCOc2ccccc2)cc1 (configuration not stated), the EC50 is reported as 1680 nM.
In the case of COc1ccccc1NS(=O)(=O)c1cc(NC(=O)CCC(=O)c2cccs2)ccc1Cl, the EC50 is reported as > 15000 nM (inactive).
Molecule COC(=O)c1c[nH]n2c(=O)c(Cc3ccc(F)cc3Cl)c(C)nc12 has an EC50 of 755 nM.
For COc1ccc(N(C(=O)Cn2nnc3ccccc32)C(C(=O)NC(C)(C)C)c2ccc(OC)c(O)c2)cc1 (configuration not stated), the EC50 was 2210 nM.
For CCOC(=O)CSc1ccc(C(=O)N2CCN(C)CC2)cc1[N+](=O)[O-], the EC50 was > 16000 nM (inactive).
Molecule COc1cccc(C2/C(=C(/O)c3ccc(C)cc3)C(=O)C(=O)N2Cc2ccco2)c1 (configuration not stated) has an EC50 of 7030 nM.
Work on CN(C(=O)CSc1nnc(-c2ccco2)o1)C1CCCCC1 yielded an EC50 of 13200 nM.
In the case of COc1ccccc1OCC(=O)N/N=C/C=C/c1ccc([N+](=O)[O-])o1, the EC50 is reported as 1220 nM.
Molecule COc1cccc(C2CC(c3ccc(NS(C)(=O)=O)cc3)=NN2C(=O)c2ccccc2)c1OC (configuration not stated) has an EC50 of 3730 nM.
Molecule COc1cccc(/C=N/NC(=O)c2c(C)nc3ccc(Br)cn23)c1O has an EC50 of 642 nM.
Cc1ccc(C)c(N=Nc2ccc(O)c3ncccc23)c1 was tested, and the EC50 was 716 nM.
With Cc1ccc(S(=O)(=O)/N=C(/c2ccccc2)N2CCOCC2)c(C)c1 the EC50 was > 16000 nM (inactive).
For CCCOc1cccc(C(=O)N/N=C/c2coc3ccccc3c2=O)c1, the EC50 was > 15000 nM (inactive).
BrC(=C\c1ccccc1)/C=N/n1cnnc1 was tested, and the EC50 was 1570 nM.
In the case of NC(=NCCCCCCN=C(N)/N=C(\N)Nc1ccc(Cl)cc1)/N=C(\N)Nc1ccc(Cl)cc1, the EC50 is reported as 741 nM and 1510 nM and 2130 nM.
With COC(CN(C)C(=O)c1ccc2c(c1)NC(=O)c1ccccc1S2)OC the EC50 was > 15000 nM (inactive).
O=C(NC1CCCCC1)C(c1ccc(Cl)cc1)N(C(=O)c1cnccn1)c1ccc2c(c1)OCO2 (configuration not stated) was tested, and the EC50 was 9720 nM.
With Cc1nc2ccccc2cc1OCc1ccccc1 the EC50 was 1620 nM.
Molecule C=CCc1cccc(/C=N/NC(=O)CNc2cccc3ccccc23)c1O has an EC50 of 3110 nM.
For C/C(=N\NC(=O)c1cc(-c2cccs2)nc2ccccc12)c1ccccn1, the EC50 was 1820 nM.
CC(=O)NC(c1ccc(C)cc1)c1cc([N+](=O)[O-])c2cccnc2c1O (configuration not stated) was tested, and the EC50 was 201 nM.
O=C(c1ccco1)N1CCN(c2ncnc3c(-c4ccccc4)nsc23)CC1 showed an EC50 of 1260 nM.
With COc1cc(OC)cc(C(=O)NNC(=O)Cc2ccc(OC)c(S(=O)(=O)N3CCOCC3)c2)c1 the EC50 was > 15000 nM (inactive).
For COc1cccc(C(C(=O)NC2CCCC2)N(C(=O)c2ccco2)c2ccc(-n3cnnn3)c(C)c2)c1OC (configuration not stated), the EC50 was > 15000 nM (inactive).
Cc1nc(SCc2ccc(Cl)c(Cl)c2)ncc1C(=O)O was tested, and the EC50 was > 15000 nM (inactive).
Molecule CC(C)(C)c1ccc(Cc2n[nH]c(=S)[nH]c2=O)cc1 has an EC50 of 351 nM.
CC(=O)c1c(C)nc(-c2cccc([N+](=O)[O-])c2)n1O gave an EC50 of 3290 nM.
Molecule Cn1c(SC2=CS(=O)(=O)c3ccccc32)nc2ccccc21 has an EC50 of 2320 nM.
For OCc1ccnc2c(O)cccc12, the EC50 was > 16000 nM (inactive).
COCCNC(=O)CCCn1c(=O)c2cc(OC)c(OC)cc2n(CC(=O)NCCC2=CCCCC2)c1=O was tested, and the EC50 was 5380 nM.
